US20240132463A1, “SUBSTITUTED N-(2-(2,6-DIOXOPIPERIDIN-3-YL)-1,3-DIOXOISOINDOLIN-5-YL)ARYLSULFONAMIDE ANALOGS AS MODULATORS OF CEREBLON PROTEIN” (ST. JUDE CHILDREN'S RESEARCH HOSPITAL, INC., priority 2020, published 2024)

Target: 6×His-CRBN-DDB1 protein (Homo sapiens (Human), UniProt Q96SW2)
Assay: CRBN fluorescence polarization assay
Format: binding
Conditions: cereblon binding, class symbols; read-out: CRBN FP IC50
Experimental: 6×His-CRBN-DDB1 protein (200 nM) and Cy5-O-Len probe (30 nM) were combined in 20 mM HEPES pH 7, 150 mM NaCl, 0.005% Tween-20 assay buffer. […] The plates were incubated in the dark for 1 hour at room temperature and then read on an Envision plate reader (PerkinElmer, Massachusetts, USA).

6×His-CRBN-DDB1 protein, sequence (Q96SW2 whole entry): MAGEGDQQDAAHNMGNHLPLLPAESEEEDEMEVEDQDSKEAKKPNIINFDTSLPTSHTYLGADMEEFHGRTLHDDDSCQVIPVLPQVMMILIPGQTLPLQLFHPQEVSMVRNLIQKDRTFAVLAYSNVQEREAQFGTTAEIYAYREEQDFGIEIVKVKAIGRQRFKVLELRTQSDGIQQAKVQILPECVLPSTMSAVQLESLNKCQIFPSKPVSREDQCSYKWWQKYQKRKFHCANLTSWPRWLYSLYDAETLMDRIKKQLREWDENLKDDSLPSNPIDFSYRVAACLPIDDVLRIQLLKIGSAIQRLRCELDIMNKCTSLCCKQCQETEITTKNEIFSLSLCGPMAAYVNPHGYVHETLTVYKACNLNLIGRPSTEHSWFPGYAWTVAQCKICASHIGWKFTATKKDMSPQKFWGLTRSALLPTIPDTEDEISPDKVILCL
6×His-CRBN-DDB1 protein, sequence (Q16531 whole entry partner): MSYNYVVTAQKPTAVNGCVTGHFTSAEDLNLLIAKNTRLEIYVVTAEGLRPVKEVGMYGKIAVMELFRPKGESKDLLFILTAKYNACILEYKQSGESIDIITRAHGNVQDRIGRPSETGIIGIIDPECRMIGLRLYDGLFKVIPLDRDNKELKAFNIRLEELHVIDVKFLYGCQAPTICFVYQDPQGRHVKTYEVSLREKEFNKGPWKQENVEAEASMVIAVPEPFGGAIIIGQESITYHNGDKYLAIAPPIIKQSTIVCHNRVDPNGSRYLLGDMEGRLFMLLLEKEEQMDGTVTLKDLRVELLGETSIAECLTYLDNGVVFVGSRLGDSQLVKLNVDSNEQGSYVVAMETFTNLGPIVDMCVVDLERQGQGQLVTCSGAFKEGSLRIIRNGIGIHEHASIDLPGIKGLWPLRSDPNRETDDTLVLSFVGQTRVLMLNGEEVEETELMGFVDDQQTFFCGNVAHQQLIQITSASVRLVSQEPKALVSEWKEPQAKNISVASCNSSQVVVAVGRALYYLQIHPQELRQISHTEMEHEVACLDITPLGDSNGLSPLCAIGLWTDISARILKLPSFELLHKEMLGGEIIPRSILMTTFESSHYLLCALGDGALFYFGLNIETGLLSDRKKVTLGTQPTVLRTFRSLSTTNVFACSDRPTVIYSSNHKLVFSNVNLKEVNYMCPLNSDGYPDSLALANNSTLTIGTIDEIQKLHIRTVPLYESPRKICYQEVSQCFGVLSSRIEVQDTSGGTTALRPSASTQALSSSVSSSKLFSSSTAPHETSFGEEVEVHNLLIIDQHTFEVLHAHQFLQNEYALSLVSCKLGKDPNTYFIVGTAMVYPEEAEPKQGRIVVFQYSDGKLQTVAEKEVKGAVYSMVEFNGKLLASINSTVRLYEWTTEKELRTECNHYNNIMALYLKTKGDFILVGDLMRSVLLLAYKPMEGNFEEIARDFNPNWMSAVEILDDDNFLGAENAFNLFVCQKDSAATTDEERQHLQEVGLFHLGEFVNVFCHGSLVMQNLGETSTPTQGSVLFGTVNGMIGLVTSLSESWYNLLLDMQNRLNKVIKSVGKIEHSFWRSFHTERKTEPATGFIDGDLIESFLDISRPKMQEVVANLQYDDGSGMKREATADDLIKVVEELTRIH

Row | SMILES | IC50
1 | CC(C)(C)c1ccc(S(=O)(=O)Nc2ccc3c(c2)C(=O)N(C2CCC(=O)NC2=O)C3=O)cc1 (centres unmarked) [Compound 3, 4-(tert-butyl)-N-(2-(2,6-dioxopiperidin-3-yl)-1,3-dioxoisoindolin-5-yl)benzenesulfonamide] | < 1 µM
2 | O=C1CCC(N2Cc3ccc(NS(=O)(=O)c4cccc(C(F)(F)F)c4)cc3C2=O)C(=O)N1 (centres unmarked) [Compound 32, N-(2-(2,6-dioxopiperidin-3-yl)-3-oxoisoindolin-5-yl)-3-(trifluoromethyl)benzenesulfonamide] | < 1 µM
3 | O=C1CCC(N2C(=O)c3ccc(NS(=O)(=O)c4ccc5c(c4)OCCO5)cc3C2=O)C(=O)N1 (centres unmarked) [Compound 59, N-(2-(2,6-dioxopiperidin-3-yl)-1,3-dioxoisoindolin-5-yl)-2,3-dihydrobenzo[b][1,4]dioxine-6-sulfonamide] | < 1 µM
4 | CC(C)(C)c1ccc(S(=O)(=O)Nc2ccc3c(c2)CN(C2CCC(=O)NC2=O)C3=O)cc1 (centres unmarked) [Compound 46, 4-(tert-butyl)-N-(2-(2,6-dioxopiperidin-3-yl)-1-oxoisoindolin-5-yl)benzenesulfonamide] | < 1 µM
5 | Cc1ccc(F)c(S(=O)(=O)Nc2ccc3c(c2)CN(C2CCC(=O)NC2=O)C3=O)c1 (centres unmarked) [Compound 53] | < 1 µM
6 | COc1cccc(S(=O)(=O)Nc2ccc3c(c2)C(=O)N(C2CCC(=O)NC2=O)C3)c1 (centres unmarked) [Compound 29, N-(2-(2,6-dioxopiperidin-3-yl)-3-oxoisoindolin-5-yl)-3-methoxybenzenesulfonamide] | < 1 µM
7 | CCOc1ccccc1S(=O)(=O)Nc1ccc2c(c1)C(=O)N(C1CCC(=O)NC1=O)C2=O (centres unmarked) [Compound 79, N-(2-(2,6-dioxopiperidin-3-yl)-1,3-dioxoisoindolin-5-yl)-2-ethoxybenzenesulfonamide] | 1 to 10 µM
8 | COc1cccc(S(=O)(=O)Nc2ccc3c(c2)CN(C2CCC(=O)NC2=O)C3=O)c1 (centres unmarked) [Compound 47, N-(2-(2,6-dioxopiperidin-3-yl)-1-oxoisoindolin-5-yl)-3-methoxybenzenesulfonamide] | < 1 µM
9 | O=C1CCC(N2Cc3cc(NS(=O)(=O)c4ccc(F)c(Cl)c4)ccc3C2=O)C(=O)N1 (centres unmarked) [Compound 49, 3-chloro-N-(2-(2,6-dioxopiperidin-3-yl)-1-oxoisoindolin-5-yl)-4-fluorobenzenesulfonamide] | < 1 µM
10 | Cc1cccc(S(=O)(=O)Nc2ccc3c(c2)CN(C2CCC(=O)NC2=O)C3=O)c1 (centres unmarked) [Compound 45, N-(2-(2,6-dioxopiperidin-3-yl)-1-oxoisoindolin-5-yl)-3-methylbenzenesulfonamide] | < 1 µM
11 | Cc1ccc(S(=O)(=O)Nc2ccc3c(c2)C(=O)N(C2CCC(=O)NC2=O)C3=O)cc1C (centres unmarked) [Compound 93, N-(2-(2,6-dioxopiperidin-3-yl)-1,3-dioxoisoindolin-5-yl)-3,4-dimethylbenzenesulfonamide] | < 1 µM
12 | O=C1CCC(N2Cc3cc(NS(=O)(=O)c4ccccc4OC(F)(F)F)ccc3C2=O)C(=O)N1 (centres unmarked) [Compound 56, N-(2-(2,6-dioxopiperidin-3-yl)-1-oxoisoindolin-5-yl)-2-(trifluoromethoxy)benzenesulfonamide] | < 1 µM
13 | O=C1CCC(N2Cc3ccc(NS(=O)(=O)c4cccc(OC(F)(F)F)c4)cc3C2=O)C(=O)N1 (centres unmarked) [Compound 27, N-(2-(2,6-dioxopiperidin-3-yl)-3-oxoisoindolin-5-yl)-3-(trifluoromethoxy)benzenesulfonamide] | < 1 µM
14 | COc1ccc(S(=O)(=O)Nc2ccc3c(c2)C(=O)N(C2CCC(=O)NC2=O)C3)cc1 (centres unmarked) [Compound 24, N-(2-(2,6-dioxopiperidin-3-yl)-3-oxoisoindolin-5-yl)-4-methoxybenzenesulfonamide] | 1 to 10 µM
15 | O=C1CCC(N2C(=O)c3ccc(NS(=O)(=O)c4ccc5ncsc5c4)cc3C2=O)C(=O)N1 (centres unmarked) [Compound 86, N-(2-(2,6-dioxopiperidin-3-yl)-1,3-dioxoisoindolin-5-yl)benzo[d]thiazole-6-sulfonamide] | < 1 µM
16 | Cc1ccc(S(=O)(=O)Nc2ccc3c(c2)CN(C2CCC(=O)NC2=O)C3=O)cc1Cl (centres unmarked) [Compound 52, 3-chloro-N-(2-(2,6-dioxopiperidin-3-yl)-1-oxoisoindolin-5-yl)-4-methylbenzenesulfonamide] | < 1 µM
17 | O=C1CCC(N2Cc3cc(NS(=O)(=O)c4ccccc4)ccc3C2=O)C(=O)N1 (centres unmarked) [Compound 38, N-(2-(2,6-dioxopiperidin-3-yl)-1-oxoisoindolin-5-yl)benzenesulfonamide] | 1 to 10 µM
18 | O=C1CCC(N2C(=O)c3ccc(NS(=O)(=O)c4cccnc4)cc3C2=O)C(=O)N1 (centres unmarked) [Compound 85, N-(2-(2,6-dioxopiperidin-3-yl)-1,3-dioxoisoindolin-5-yl)pyridine-3-sulfonamide] | 1 to 10 µM
19 | O=C1CCC(N2Cc3cc(NS(=O)(=O)c4cccc(C(F)(F)F)c4)ccc3C2=O)C(=O)N1 (centres unmarked) [Compound 50, N-(2-(2,6-dioxopiperidin-3-yl)-1-oxoisoindolin-5-yl)-3-(trifluoromethyl)benzenesulfonamide] | < 1 µM

Row | SMILES | IC50
20 | O=C1CCC(N2C(=O)c3ccc(NS(=O)(=O)c4ccccc4Br)cc3C2=O)C(=O)N1 (centres unmarked) [Compound 65, 2-bromo-N-(2-(2,6-dioxopiperidin-3-yl)-1,3-dioxoisoindolin-5-yl)benzenesulfonamide] | < 1 µM
21 | Cc1cc(S(=O)(=O)Nc2ccc3c(c2)C(=O)N(C2CCC(=O)NC2=O)C3=O)c(C)o1 (centres unmarked) [Compound 84, N-(2-(2,6-dioxopiperidin-3-yl)-1,3-dioxoisoindolin-5-yl)-2,5-dimethylfuran-3-sulfonamide] | < 1 µM
22 | O=C1CCC(N2C(=O)c3ccc(NS(=O)(=O)c4ccc(C5CCCCC5)cc4)cc3C2=O)C(=O)N1 (centres unmarked) [Compound 80, 4-cyclohexyl-N-(2-(2,6-dioxopiperidin-3-yl)-1,3-dioxoisoindolin-5-yl)benzenesulfonamide] | 1 to 10 µM
23 | O=C1CCC(N2C(=O)c3ccc(NS(=O)(=O)c4cc(F)c(Cl)cc4F)cc3C2=O)C(=O)N1 (centres unmarked) [Compound 66, 4-chloro-N-(2-(2,6-dioxopiperidin-3-yl)-1,3-dioxoisoindolin-5-yl)-2,5-difluorobenzenesulfonamide] | < 1 µM
24 | O=C1CCC(N2C(=O)c3ccc(NS(=O)(=O)c4ccc(F)cc4F)cc3C2=O)C(=O)N1 (centres unmarked) [Compound 74, N-(2-(2,6-dioxopiperidin-3-yl)-1,3-dioxoisoindolin-5-yl)-2,4-difluorobenzenefylfonamide] | 1 to 10 µM
25 | O=C1CCC(N2C(=O)c3ccc(NS(=O)(=O)c4ccc(F)c(F)c4)cc3C2=O)C(=O)N1 (centres unmarked) [Compound 11, N-(2-(2,6-dioxopiperidin-3-yl)-1,3-dioxoisoindolin-5-yl)-3,4-difluorobenzenesulfonamide] | < 1 µM
26 | O=C1CCC(N2Cc3ccc(NS(=O)(=O)c4ccc(C(F)(F)F)cc4)cc3C2=O)C(=O)N1 (centres unmarked) [Compound 26, N-(2-(2,6-dioxopiperidin-3-yl)-3-oxoisoindolin-5-yl)-4-(trifluoromethyl)benzenesulfonamide] | < 1 µM
27 | O=C1CCC(N2Cc3ccc(NS(=O)(=O)c4ccccc4C(F)(F)F)cc3C2=O)C(=O)N1 (centres unmarked) [Compound 28, N-(2-(2,6-dioxopiperidin-3-yl)-3-oxoisoindolin-5-yl)-2-(trifluoromethyl)benzenesulfonamide] | < 1 µM
28 | Cc1cccc(S(=O)(=O)Nc2ccc3c(c2)C(=O)N(C2CCC(=O)NC2=O)C3=O)c1 (centres unmarked) [Compound 19, N-(2-(2,6-dioxopiperidin-3-yl)-1,3-dioxoisoindolin-5-yl)-3-methylbenzenesulfonamide] | < 1 µM
29 | Cc1c(Cl)cccc1S(=O)(=O)Nc1ccc2c(c1)C(=O)N(C1CCC(=O)NC1=O)C2 (centres unmarked) [Compound 36, 3-chloro-N-(2-(2,6-dioxopiperidin-3-yl)-3-oxoisoindolin-5-yl)-2-methylbenzenesulfonamide] | < 1 µM
30 | CC(C)c1ccc(S(=O)(=O)Nc2ccc3c(c2)C(=O)N(C2CCC(=O)NC2=O)C3)cc1 (centres unmarked) [Compound 30, N-(2-(2,6-dioxopiperidin-3-yl)-3-oxoisoindolin-5-yl)-4-isopropylbenzenesulfonamide] | < 1 µM
31 | O=C1CCC(N2Cc3ccc(NS(=O)(=O)c4ccccc4)cc3C2=O)C(=O)N1 (centres unmarked) [Compound 22, N-(2-(2,6-dioxopiperidin-3-yl)-3-oxoisoindolin-5-yl)benzenesulfonamide] | < 1 µM
32 | O=C1CCC(N2C(=O)c3ccc(NS(=O)(=O)c4ccc(-c5ccccc5)cc4)cc3C2=O)C(=O)N1 (centres unmarked) [Compound 62, N-(2-(2,6-dioxopiperidin-3-yl)-1,3-dioxoisoindolin-5-yl)(1,1′-biphenyl]-4-sulfonamide] | < 1 µM
33 | Cc1ccc(S(=O)(=O)Nc2ccc3c(c2)C(=O)N(C2CCC(=O)NC2=O)C3)cc1Cl (centres unmarked) [Compound 33, 3-chloro-N-(2-(2,6-dioxopiperidin-3-yl)-3-oxoisoindolin-5-yl)-4-methylbenzenesulfonamide] | < 1 µM
34 | Cc1ccccc1S(=O)(=O)Nc1ccc2c(c1)C(=O)N(C1CCC(=O)NC1=O)C2 (centres unmarked) [Compound 35, N-(2-(2,6-dioxopiperidin-3-yl)-3-oxoisoindolin-5-yl)-2-methylbenzenesulfonamide] | < 1 µM
35 | Cc1ccc(S(=O)(=O)Nc2ccc3c(c2)C(=O)N(C2CCC(=O)NC2=O)C3)cc1 (centres unmarked) [Compound 25, N-(2-(2,6-dioxopiperidin-3-yl)-3-oxoisoindolin-5-yl)-4-methylbenzenesulfonamide] | < 1 µM
36 | Cc1ccccc1S(=O)(=O)Nc1ccc2c(c1)CN(C1CCC(=O)NC1=O)C2=O (centres unmarked) [Compound 54, N-(2-(2,6-dioxopiperidin-3-yl)-1-oxoisoindolin-5-yl)-2-methylbenzenesulfonamide] | < 1 µM
37 | O=C1CCC(N2C(=O)c3ccc(NS(=O)(=O)c4ccco4)cc3C2=O)C(=O)N1 (centres unmarked) [Compound 91, N-(2-(2,6-dioxopiperidin-3-yl)-1,3-dioxoisoindolin-5-yl)furan-2-sulfonamide] | < 1 µM
38 | O=C1CCC(N2Cc3ccc(NS(=O)(=O)c4ccccc4OC(F)(F)F)cc3C2=O)C(=O)N1 (centres unmarked) [Compound 37, N-(2-(2,6-dioxopiperidin-3-yl)-3-oxoisoindolin-5-yl)-2-(trifluoromethoxy)benzenesulfonamide] | < 1 µM
